According to ChEMBL document CHEMBL1136702, “Design and synthesis of S-(-)-2-[[4-(napht-1-yl)piperazin-1-yl]methyl]-1,4-dioxoperhydropyrrolo[1,2-a]pyrazine (CSP-2503) using computational simulation. A 5-HT1A receptor agonist” (Bioorg Med Chem Lett, 2003):

Key:
[1] = target: T1, Adrenergic receptor alpha-1 (Rattus norvegicus, UniProt P15823+P23944+P43140); assay: Binding affinity towards Alpha-1 adrenergic receptor in rat cerebral cortex membranes using [3H]prazosin as radioligand; type: cell membranes, Membrane
T1 sequence (P15823 whole entry): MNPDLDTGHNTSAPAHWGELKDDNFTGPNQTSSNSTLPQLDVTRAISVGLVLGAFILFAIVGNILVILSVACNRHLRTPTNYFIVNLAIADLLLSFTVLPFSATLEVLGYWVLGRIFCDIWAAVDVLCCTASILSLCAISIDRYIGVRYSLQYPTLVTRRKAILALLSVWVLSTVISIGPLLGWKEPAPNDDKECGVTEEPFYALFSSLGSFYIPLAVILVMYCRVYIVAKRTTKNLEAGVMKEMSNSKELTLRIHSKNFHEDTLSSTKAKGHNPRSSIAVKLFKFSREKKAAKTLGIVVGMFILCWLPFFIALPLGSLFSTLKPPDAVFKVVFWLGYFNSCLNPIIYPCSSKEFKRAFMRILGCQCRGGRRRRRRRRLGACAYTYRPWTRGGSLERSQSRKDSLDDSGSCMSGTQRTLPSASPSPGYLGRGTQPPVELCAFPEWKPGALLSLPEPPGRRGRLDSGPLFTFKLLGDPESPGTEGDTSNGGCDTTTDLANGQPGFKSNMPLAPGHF
T1 sequence (P23944 whole entry): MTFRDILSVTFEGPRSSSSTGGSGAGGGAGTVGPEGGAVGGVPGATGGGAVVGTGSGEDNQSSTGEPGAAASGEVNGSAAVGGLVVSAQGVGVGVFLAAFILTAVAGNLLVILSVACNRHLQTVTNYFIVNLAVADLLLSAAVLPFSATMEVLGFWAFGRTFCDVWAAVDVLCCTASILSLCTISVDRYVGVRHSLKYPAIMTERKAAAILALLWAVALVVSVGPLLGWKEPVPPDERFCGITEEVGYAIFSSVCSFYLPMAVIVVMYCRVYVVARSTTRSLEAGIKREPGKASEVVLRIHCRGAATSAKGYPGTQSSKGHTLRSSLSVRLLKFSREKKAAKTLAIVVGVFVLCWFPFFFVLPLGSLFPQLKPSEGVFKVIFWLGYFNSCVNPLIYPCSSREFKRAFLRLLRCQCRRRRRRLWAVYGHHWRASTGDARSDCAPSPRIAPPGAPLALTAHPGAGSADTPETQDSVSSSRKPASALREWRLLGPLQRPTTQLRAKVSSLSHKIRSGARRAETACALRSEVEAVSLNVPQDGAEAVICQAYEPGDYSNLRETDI
T1 sequence (P43140 whole entry): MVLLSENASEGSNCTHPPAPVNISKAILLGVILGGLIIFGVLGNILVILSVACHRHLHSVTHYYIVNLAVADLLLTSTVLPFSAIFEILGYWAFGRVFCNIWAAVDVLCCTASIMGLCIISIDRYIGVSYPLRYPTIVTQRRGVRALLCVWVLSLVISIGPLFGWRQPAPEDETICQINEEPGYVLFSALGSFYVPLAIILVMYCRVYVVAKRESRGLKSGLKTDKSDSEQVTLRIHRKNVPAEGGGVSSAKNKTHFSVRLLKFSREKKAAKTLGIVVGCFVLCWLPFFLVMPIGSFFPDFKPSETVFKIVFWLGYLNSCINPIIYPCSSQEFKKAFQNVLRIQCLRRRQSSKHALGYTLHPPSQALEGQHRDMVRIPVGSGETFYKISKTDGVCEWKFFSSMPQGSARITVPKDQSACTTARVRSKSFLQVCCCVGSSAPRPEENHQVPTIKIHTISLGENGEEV

[2] = target: T2, 5-hydroxytryptamine receptor 1A (Rattus norvegicus, UniProt P19327); assay: Binding affinity towards 5-HT 1A receptor in rat cerebral cortex membranes using [3H]8-OH-DPAT as radioligand; type: cell membranes, Membrane
T2 sequence (P19327 whole entry): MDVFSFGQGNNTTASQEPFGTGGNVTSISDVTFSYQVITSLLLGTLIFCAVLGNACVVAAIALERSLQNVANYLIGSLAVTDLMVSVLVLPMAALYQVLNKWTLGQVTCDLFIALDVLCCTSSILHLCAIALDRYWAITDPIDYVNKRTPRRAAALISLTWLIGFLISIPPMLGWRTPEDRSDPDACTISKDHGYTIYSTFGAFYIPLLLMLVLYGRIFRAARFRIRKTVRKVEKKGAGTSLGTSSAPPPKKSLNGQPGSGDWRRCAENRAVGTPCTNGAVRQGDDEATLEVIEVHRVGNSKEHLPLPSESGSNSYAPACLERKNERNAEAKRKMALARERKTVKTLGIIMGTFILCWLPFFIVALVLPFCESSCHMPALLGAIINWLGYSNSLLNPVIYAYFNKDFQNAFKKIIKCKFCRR

[3] = target: 5-hydroxytryptamine receptor 4 (Rattus norvegicus, UniProt Q62758); assay: Binding affinity towards 5-HT 4 receptor in rat striatum membranes using [3H]GR-113808 as radioligand; type: cell membranes, Membrane
Chain of 5-hydroxytryptamine receptor 4 (Q62758 whole entry): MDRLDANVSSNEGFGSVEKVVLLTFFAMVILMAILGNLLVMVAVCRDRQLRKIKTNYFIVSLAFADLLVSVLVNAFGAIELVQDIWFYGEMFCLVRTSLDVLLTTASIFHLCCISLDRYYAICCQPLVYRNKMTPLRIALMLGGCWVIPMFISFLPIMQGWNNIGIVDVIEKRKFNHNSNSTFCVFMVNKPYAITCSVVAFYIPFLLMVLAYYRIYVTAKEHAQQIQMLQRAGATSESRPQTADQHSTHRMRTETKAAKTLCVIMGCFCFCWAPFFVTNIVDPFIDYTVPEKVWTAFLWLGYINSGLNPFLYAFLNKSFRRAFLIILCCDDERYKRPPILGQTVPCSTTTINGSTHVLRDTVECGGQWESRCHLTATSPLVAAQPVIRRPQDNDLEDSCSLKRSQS

[4] = target: 5-hydroxytryptamine receptor 2A (Rattus norvegicus, UniProt P14842); assay: Binding affinity towards 5-HT 2A receptor in rat cerebral frontal cortex membranes using [3H]ketanserin as radioligand; type: tissue-based, Membrane
Chain of 5-hydroxytryptamine receptor 2A (P14842 whole entry): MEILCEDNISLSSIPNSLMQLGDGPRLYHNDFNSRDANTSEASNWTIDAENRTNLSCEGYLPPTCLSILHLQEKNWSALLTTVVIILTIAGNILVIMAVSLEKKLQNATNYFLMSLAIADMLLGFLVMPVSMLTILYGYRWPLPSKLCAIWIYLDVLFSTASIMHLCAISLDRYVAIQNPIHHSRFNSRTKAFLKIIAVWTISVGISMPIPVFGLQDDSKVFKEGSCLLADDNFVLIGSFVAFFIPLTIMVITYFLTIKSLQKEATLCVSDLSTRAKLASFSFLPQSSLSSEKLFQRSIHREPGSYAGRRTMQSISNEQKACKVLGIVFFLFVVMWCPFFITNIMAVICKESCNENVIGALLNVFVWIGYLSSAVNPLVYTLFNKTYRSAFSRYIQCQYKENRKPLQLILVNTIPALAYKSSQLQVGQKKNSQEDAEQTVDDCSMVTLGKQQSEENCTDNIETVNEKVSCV

[5] = target: Sodium-dependent serotonin transporter (Rattus norvegicus, UniProt P31652); assay: Binding affinity towards 5-HT transporter in rat cerebral cortex membranes using [3H]paroxetine as radioligand; type: cell membranes, Membrane
Chain of Sodium-dependent serotonin transporter (P31652 whole entry): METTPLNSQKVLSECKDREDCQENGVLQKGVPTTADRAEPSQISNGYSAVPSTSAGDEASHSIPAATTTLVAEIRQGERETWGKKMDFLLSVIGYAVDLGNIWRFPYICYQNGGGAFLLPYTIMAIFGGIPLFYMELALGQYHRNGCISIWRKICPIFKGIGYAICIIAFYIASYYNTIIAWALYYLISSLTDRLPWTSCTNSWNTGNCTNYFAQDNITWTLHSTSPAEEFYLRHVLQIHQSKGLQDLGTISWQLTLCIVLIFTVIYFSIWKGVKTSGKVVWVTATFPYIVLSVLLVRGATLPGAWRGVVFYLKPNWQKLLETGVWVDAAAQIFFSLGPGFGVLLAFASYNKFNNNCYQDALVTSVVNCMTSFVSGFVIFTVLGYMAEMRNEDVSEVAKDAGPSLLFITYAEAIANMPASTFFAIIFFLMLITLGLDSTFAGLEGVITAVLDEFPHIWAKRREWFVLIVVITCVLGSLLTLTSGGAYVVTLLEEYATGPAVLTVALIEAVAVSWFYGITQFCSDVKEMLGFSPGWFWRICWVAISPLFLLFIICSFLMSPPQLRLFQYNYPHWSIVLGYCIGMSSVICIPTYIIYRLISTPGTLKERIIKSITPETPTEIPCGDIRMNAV

[6] = target: 5-hydroxytryptamine receptor 7 (Rattus norvegicus, UniProt P32305); assay: Binding affinity towards 5-HT 7 receptor in rat hypothalamus membranes using [3H]5-CT as radioligand; type: cell membranes, Membrane
Chain of 5-hydroxytryptamine receptor 7 (P32305 whole entry): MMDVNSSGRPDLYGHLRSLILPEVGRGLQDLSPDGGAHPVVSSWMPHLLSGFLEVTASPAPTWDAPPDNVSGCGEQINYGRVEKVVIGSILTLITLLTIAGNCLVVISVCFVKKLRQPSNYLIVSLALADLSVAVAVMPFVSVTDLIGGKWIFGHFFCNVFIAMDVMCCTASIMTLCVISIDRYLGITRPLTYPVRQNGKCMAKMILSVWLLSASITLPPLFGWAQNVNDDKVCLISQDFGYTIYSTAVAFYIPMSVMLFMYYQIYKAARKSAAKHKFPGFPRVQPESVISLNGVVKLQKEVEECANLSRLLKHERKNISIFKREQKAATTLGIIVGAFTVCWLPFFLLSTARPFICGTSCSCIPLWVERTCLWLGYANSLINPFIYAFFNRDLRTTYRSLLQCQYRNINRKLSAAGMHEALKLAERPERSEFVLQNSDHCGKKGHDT

[7] = target: GABA-A receptor; anion channel; assay: Displacement of [3H]flunitrazepam from GABA-A benzodiazepine receptor of rat cerebral cortex membranes; type: cell membranes, Membrane
D(2) dopamine receptor = D(2) dopamine receptor (Rattus norvegicus, UniProt P61169); assay: Binding affinity towards dopamine D2 receptor in rat striatum membranes using [3H]raclopride as radioligand; type: cell membranes, Membrane
Chain of D(2) dopamine receptor (P61169 whole entry): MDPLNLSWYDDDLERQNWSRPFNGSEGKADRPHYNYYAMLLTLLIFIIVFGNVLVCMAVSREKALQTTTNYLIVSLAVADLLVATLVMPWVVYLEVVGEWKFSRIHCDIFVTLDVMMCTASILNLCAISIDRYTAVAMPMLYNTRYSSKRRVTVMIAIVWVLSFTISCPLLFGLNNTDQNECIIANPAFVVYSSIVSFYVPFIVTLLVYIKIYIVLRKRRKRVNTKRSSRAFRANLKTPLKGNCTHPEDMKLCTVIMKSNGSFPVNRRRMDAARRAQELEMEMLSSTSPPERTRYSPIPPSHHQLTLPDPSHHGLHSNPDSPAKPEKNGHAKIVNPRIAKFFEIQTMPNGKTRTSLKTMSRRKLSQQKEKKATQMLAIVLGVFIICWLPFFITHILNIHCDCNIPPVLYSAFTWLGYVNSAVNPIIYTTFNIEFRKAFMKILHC

## O=C1C2CCCCN2C(=O)N1CN1CCN(c2cccc3c2OCCO3)CC1 (configuration not stated)
[1]
  Ki: > 1000 nM
[2]
  Ki: 9.3 nM

## O=C1C2CCCN2C(=O)CN1CN1CCN(c2cccc3c2COCCO3)CC1 (configuration not stated)
[1]
  Ki: > 1000 nM
[2]
  Ki: 12.3 nM

## O=C1C2CCCCN2C(=O)N1CN1CCN(c2cccc3c2COCCO3)CC1 (configuration not stated)
[1]
  Ki: > 1000 nM
[2]
  Ki: 6.1 nM

## O=C1C2CCCN2C(=O)N1CCCCN1CCN(c2cccc3ccccc23)CC1 (configuration not stated)
[1]
  Ki: 64.9 nM
[2]
  Ki: 2.4 nM

## O=C1C2CCCN2C(=O)N1CN1CCN(c2cccc3ccccc23)CC1 (configuration not stated)
[1]
  Ki: > 1000 nM
[2]
  Ki: 10.4 nM

## O=C1C2CCCCN2C(=O)N1CN1CCN(c2cccc3ccccc23)CC1 (configuration not stated)
[1]
  Ki: > 1000 nM
[2]
  Ki: 5.6 nM

## O=C1C2CCCN2C(=O)CN1CN1CCN(c2cccc3ccccc23)CC1 (configuration not stated)
[1]
  Ki: > 1000 nM
[3]
  Ki: > 10000 nM
[4]
  Ki: 13.5 nM
[5]
  Ki: 976 nM
[6]
  Ki: 101 nM
[7]
  Ki: > 10000 nM
D(2) dopamine receptor
  Ki: 192 nM
[2]
  Ki: 4.1 nM

## O=C1C2CCCN2C(=O)N1CN1CCN(c2cccc3[nH]cnc23)CC1 (configuration not stated)
[1]
  Ki: 10000 nM
[2]
  Ki: 4.1 nM
